Columns and labels:
Format in all cases: cell-based, horse
[1] = system: caecal/large colon digesta; experiment: Experiment 2 Part 2: in vitro fermentation with cornstarch, antibiotics at or below 2 ug/ml; details: for L-lactate / pH: cornstarch 0.75 g per flask, 16 hours, mean
Experimental: (§1) Digesta was taken from the caecum and large colon from recently slaughtered animals and was filtered through nylon gauze (approximately 60 micron apertures). The fluid was diluted 1:1 with a buffer solution described by Bales et al. (1976) and incubated with wheat "corn starch" (with or without antibiotics) at 37° for 16 to 20 hours. Aliquots of digesta diluted with buffer (50 ml) were added to 100 ml conical flasks. The flasks were flushed with carbon dioxide before being sealed with a tightly fitting rubber cap. A 21 gauge needle was inserted through the rubber seal in order to allow gas to escape during the fermentation. On removal from the incubator sub-samples were immediately taken to measure L-lactic acid concentration and pH. For each treatment or level of antibiotic three replicate incubation flasks were used.
Incubation flasks were set up as described above with cornstarch (0.75 g) containing virginiamycin, flavomycin or zinc-bacitracin a levels to provide: 0, 0.25, 0.5, 1.0 and 2 ug antibiotic/ml incubation mixture. These flasks were incubated for 16 hours. Flasks were also set up with 0.75 g cornstarch and no antibiotic equipped with a tap and sampling tube in order to take samples from the incubation vessels at various times during the fermentation. Samples were taken at the start of the incubation and at 2, 4, 6, 8, 12 and 24 h. These were analysed for L-lactate concentration and pH.

[2] = system: mixed caecal/large colon digesta; experiment: Experiment 2 Part 1: in vitro fermentation of digesta with cornstarch, avoparcin, virginiamycin, flavomycin 2-32 ug/ml; parameters: Lactate / Total VFA: unit not given here; details: for pH / Acet:Prop / Lactate / Total VFA: mean
Experimental: as §1
A range of concentrations of cornstarch providing: 0, 5, 10, 15 and 20 mg/ml diluted digesta (i.e. from 0 to 1 g cornstarch/conical flask) were tested to determine the amount required to produce a pattern of fermentation with high levels of lactic acid. Flasks were also prepared with cornstarch mixed with antibiotic premixes to provide 15 mg cornstarch/ml incubation mixture and 0, 2, 4, 8, 16 and 32 ug of avoparcin, virginiamycin or flavomycin per ml incubation mixture. After approximately 16 hour incubation at 37° samples were taken to measure lactic acid, VFA and pH.

[3] = system: caecal/large colon digesta; experiment: Experiment 2 Part 5: efficacy of tylosin relative to virginiamycin, digesta incubated with glucose; details: antibiotic 1.00 μg/ml, 37°, 20 hours, mean
[4] = system: caecal and large colon digesta; experiment: Experiment 2 Part 4: digesta of virginiamycin-fed horses incubated with cornstarch; details: for L-lactate, incubated digesta / pH, incubated digesta: digesta of virginiamycin-fed horses incubated 20 hours with cornstarch 15 mg/ml, n = 5, mean
Experimental: as §1
A total of ten horses were used for this experiment. Five horses were offered 5 kg of a pelleted mixture (ground wheat 92.5%, ground lucerne chaff 5% and `Stafac 20` 2.5% to supply approximately 2.5 g virginiamycin. A further 5 horses were offered the same feed but without virginiamycin. Samples of caecal and large colon digesta were taken for analysis of pH, VFA, virginiamycin and L-lactate. Samples were also prepared as described above with buffer solution and incubated (1 flask/sample) with cornstarch (15 mg/ml diluted digesta). Following 20 hours incubation samples were taken for analysis of L-lactate and pH.

[5] = antibiotic 2 μg/ml, cornstarch 15 mg/ml, approx 16 hour incubation
[6] = antibiotic 4 μg/ml, cornstarch 15 mg/ml, approx 16 hour incubation
[7] = antibiotic 8 μg/ml, cornstarch 15 mg/ml, approx 16 hour incubation
[8] = antibiotic 16 μg/ml, cornstarch 15 mg/ml, approx 16 hour incubation
[9] = antibiotic 32 μg/ml, cornstarch 15 mg/ml, approx 16 hour incubation

virginiamycin
L-lactate ([1]; antibiotic 0.25 μg/ml): 28.4 mmol/L
pH ([1]; antibiotic 0.25 μg/ml): 5.45
L-lactate ([1]; antibiotic 0.50 μg/ml): 28.8 mmol/L
pH ([1]; antibiotic 0.50 μg/ml): 5.44
L-lactate ([1]; antibiotic 1.00 μg/ml): 3.2 mmol/L
pH ([1]; antibiotic 1.00 μg/ml): 5.66
L-lactate ([1]; antibiotic 2.00 μg/ml): 1.4 mmol/L
pH ([1]; antibiotic 2.00 μg/ml): 5.78
control of lactic acid compared with the other antibiotics ([1]; at concentrations of 1 ug/ml): best control of lactic acid
control of lactic acid build up ([2]; Experiment 2 screening programme as a whole): consistent and effective control
pH ([2]; antibiotic 2 μg/ml, cornstarch 15 mg/ml, approx 16 hour incubation at 37°): 6.57
Acet:Prop [2, 5]: 2.9
Lactate [2, 5]: 0.2
Total VFA [2, 5]: 93.2
Acet:Prop [2, 6]: 3.1
Lactate [2, 6]: 0.2
Total VFA [2, 6]: 80.8
pH [2, 6]: 6.63
Acet:Prop [2, 7]: 3.2
Lactate [2, 7]: 0.2
Total VFA [2, 7]: 79.7
pH [2, 7]: 6.66
Acet:Prop [2, 8]: 3.8
Lactate [2, 8]: 0.0
Total VFA [2, 8]: 71.3
pH [2, 8]: 6.64
Acet:Prop [2, 9]: 3.7
Lactate [2, 9]: 0.1
Total VFA [2, 9]: 87.1
pH [2, 9]: 6.66
control of lactic acid build-up ([2]; at concentrations as low as 2 g/ml, cornstarch 15 mg/ml): total control
L-lactate [3]: 9.3 mmol/L
L-lactate, incubated digesta ([4]; Caecum): 5.5 mmol/L
pH, incubated digesta ([4]; Caecum): 5.2
L-lactate, incubated digesta ([4]; Colon): 1.8 mmol/L
pH, incubated digesta ([4]; Colon): 5.3
lactic acid produced following incubation with cornstarch versus controls ([4]; digesta from animals that had consumed virginiamycin, p<0.001): significantly less
pH in the incubated digesta versus controls ([4]; digesta from animals that had received virginiamycin): higher pH
